Laboratory results taken from the supplement of paper PMC10307832.

Key:
Test in all cases: relative viability (nuclei count vs DMSO), 5 days (fraction); higher = more cells survive
Vemurafenib + Bortezomib = compound: CCCS(=O)(=O)Nc1ccc(F)c(C(=O)c2c[nH]c3ncc(-c4ccc(Cl)cc4)cc23)c1F [Vemurafenib] + CC(C)C[C@H](NC(=O)[C@H](Cc1ccccc1)NC(=O)c1cnccn1)B(O)O [Bortezomib] (partner 0.002 µM)
Procedure, shortened: (§1)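 Each reported value is a median over duplicate plates. It expresses relative viability: treated-well nuclei count divided by vehicle-well nuclei count. Lung cancer cell lines in 1536-well plates were dosed by pin tool a day after seeding, alone with one drug or with a fixed anchor-drug dose plus five library-drug doses (not always all listed) in √10 steps, and nuclei were counted after 5 days.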

Vemurafenib + AZD7762 = compound: CCCS(=O)(=O)Nc1ccc(F)c(C(=O)c2c[nH]c3ncc(-c4ccc(Cl)cc4)cc23)c1F [Vemurafenib] + NC(=O)Nc1cc(-c2cccc(F)c2)sc1C(=O)N[C@H]1CCCNC1 [AZD7762] (partner 0.2 µM)
Procedure, shortened: as §1

Vemurafenib + Decitabine = compound: CCCS(=O)(=O)Nc1ccc(F)c(C(=O)c2c[nH]c3ncc(-c4ccc(Cl)cc4)cc23)c1F [Vemurafenib] + Nc1ncn([C@H]2C[C@H](O)[C@@H](CO)O2)c(=O)n1 [Decitabine] (partner 2 µM)
Procedure, shortened: as §1

OSI-027 + Vorinostat = compound: COc1cccc2cc(-c3nc([C@H]4CC[C@H](C(=O)O)CC4)n4ncnc(N)c34)[nH]c12 [OSI-027] + O=C(CCCCCCC(=O)Nc1ccccc1)NO [Vorinostat] (partner 1 µM)
Procedure, shortened: as §1

Row | Cell Line | relative viability (Vemurafenib + Bortezomib; first compound 0.03162 µM) | relative viability (Vemurafenib + Bortezomib; first compound 0.1 µM) | relative viability (Vemurafenib + Bortezomib; first compound 0.3162 µM) | relative viability (Vemurafenib + Bortezomib; first compound 1 µM) | relative viability (Vemurafenib + AZD7762; first compound 0.03162 µM) | relative viability (Vemurafenib + AZD7762; first compound 0.1 µM) | relative viability (Vemurafenib + AZD7762; first compound 0.3162 µM) | relative viability (Vemurafenib + AZD7762; first compound 1 µM) | relative viability (Vemurafenib + Decitabine; first compound 0.03162 µM) | relative viability (Vemurafenib + Decitabine; first compound 0.1 µM) | relative viability (Vemurafenib + Decitabine; first compound 0.3162 µM) | relative viability (Vemurafenib + Decitabine; first compound 1 µM) | relative viability (OSI-027 + Vorinostat; first compound 0.01 µM) | relative viability (OSI-027 + Vorinostat; first compound 0.03162 µM) | relative viability (OSI-027 + Vorinostat; first compound 0.1 µM) | relative viability (OSI-027 + Vorinostat; first compound 0.3162 µM) | relative viability (OSI-027 + Vorinostat; first compound 1 µM)
1 | NCI-H727 | 0.927 | 0.812 | 1.35 | 0.54 | 0.555 | 0.468 | 0.744 | 0.59 | 0.688 | 0.762 | 0.964 | 0.866 | 1.08 | 1.06 | 1.11 | 1.23 | 1.03
2 | NCI-H838 | 0.707 | 0.723 |  | 1.15 | 0.899 | 0.955 | 0.709 | 0.918 | 0.467 | 0.485 | 0.54 | 0.598 | 0.65 | 0.646 | 0.632 | 0.55 | 0.459
3 | NCI-H1355 | 1.21 | 1.19 | 1.15 | 1.23 | 0.672 | 0.663 | 0.603 | 0.698 | 0.344 | 0.348 | 0.363 | 0.37 | 0.648 | 0.632 | 0.622 | 0.475 | 0.3
4 | NCI-H1437 | 0.439 | 0.411 | 0.622 | 0.541 | 1.14 | 1.04 | 0.943 | 1.09 | 0.523 | 0.565 | 0.531 | 0.579 | 0.859 | 0.767 | 0.861 | 0.848 | 0.521
5 | NCI-H1651 | 0.851 | 0.949 | 0.769 | 1 | 0.407 | 0.407 | 0.4 | 0.467 | 0.532 | 0.633 | 0.494 | 0.621 | 0.57 | 0.482 | 0.509 | 0.528 | 0.469
6 | NCI-H1666 | 0.839 |  | 0.98 | 0.759 | 0.782 | 0.73 | 0.729 | 0.829 | 0.612 | 0.724 | 0.686 | 0.764 | 0.993 | 1.02 | 1.01 | 0.915 | 0.667
7 | NCI-H1703 | 0.527 | 0.438 | 0.32 | 0.257 | 0.12 |  |  | 0.101 |  |  |  |  |  |  |  |  | 
8 | NCI-H1734 | 0.855 | 1.01 | 0.709 | 0.815 | 0.568 | 0.533 | 0.371 | 0.559 | 0.569 | 0.486 | 0.506 | 0.506 | 0.912 | 0.781 | 0.728 | 0.707 | 0.455
9 | NCI-H1755 | 0.877 | 0.878 | 0.712 | 0.931 | 0.483 | 0.459 | 0.328 | 0.408 | 0.705 | 0.616 | 0.73 | 0.711 | 0.72 | 0.855 | 0.655 | 0.711 | 0.472
10 | NCI-H1792 | 0.875 | 0.951 | 0.721 | 0.957 | 0.548 | 0.44 |  | 0.593 | 0.539 | 0.564 |  | 0.477 |  |  |  |  | 
11 | NCI-H1915 | 0.894 | 0.995 | 0.886 | 0.91 | 0.644 | 0.728 | 0.587 | 0.612 | 0.244 | 0.253 | 0.26 | 0.244 | 0.542 | 0.502 | 0.479 | 0.426 | 0.34
